Here are results for one molecule from US5900434A, “Method for inhibiting the production of interleukin-1 or tumor necrosis factor-α by administering acanthoic acid” (Korea Institute of Science and Technology, priority 1994, dated 1999).

For experiment [1], the system named is TNF-α production in human monocytes and macrophages. Briefly: Inhibition of TNF-α production in human monocytes and macrophages (L929 cell lytic assay). It is filed as cell-based. To be noted: 5 μg/ml or more of acanthoic acid; silica-stimulated; FIG. 3. How it is done: The monocytes and macrophages obtained in Reference Example 1 (1) were incubated with 0.1 to 100 μg/ml of acanthoic acid for an hour and treated with 100 μg/ml of silica for 48 hours. The culture was centrifuged to obtain supernatant, which was then dialyzed against PBS. The activity of IL-1 in the dialyzate was determined in accordance with the method of Gery described in Cellular Immunology, 64, 293-303(1981) as follows. Human monocytes and macrophages were treated with acanthoic acid in accordance with the same procedures as in Example 1, and the activity of TNF-α was measured by cell lytic assay in accordance with the method of Aggarwal as described in J. Biol. Chem., 260, 2345(1985). TNF-α dependent L929 fibroblasts(ATCC CCLl) were suspended in RPMI 1640 medium containing 5% FBS and added to the wells of 96-well incubation plate in an amount of 3×10^4 cells/well. The plate was incubated at 37° C. for 2 hours to make the cells adhere to the incubation plate. […] Then, 100 μl of 33% acetic acid was added to each of the wells to release the dye, and then the O.D. of sample obtained from each of the wells was determined by using ELISA reader with 570 nm reading filter and 405 nm reference filter. The amount of released dye was calculated from the O.D. value with reference to that of the internal control group, i.e., rHu TNF-α(Genzyme).

The subject of experiment [2] is H2O2 production in human neutrophils. Description: Production of H2O2 in human neutrophils (PMA-stimulated). The format is cell-based. How it is done: Normal human peripheral blood was heparin-treated and diluted with equal amount of Hank's balanced salt solution (HBSS: Ca^2+ and Mg^2+ free). The diluted blood was put into a centrifuge tube containing therein Ficoll-Hypaque(Sigma, St. Louis, Mo., U.S.A.) layer having a density of 1.077 piled up on Ficoll-Hypaque layer having a density of 1.119, and then centrifuged at 700×g for 30 minutes to obtain monocytes from the layer between Ficoll-Hypaque layer having a density of 1.077 and serum layer, and neutrophils from the layer between Ficoll-Hypaque layer having a density of 1.077 and that having a density of 1.119. The separated cells were washed twice with 4° C. HBSS(Ca^2+ and Mg^2+ free) and suspended in RPMI 1640 medium(Gibco, Grand Island, N.Y., U.S.A.) containing 10% fetal bovine serum(FBS, Hyclone, Logan, Utah, U.S.A.). The suspensions were added to the wells of 24-well incubation plate(Costar, Cambridge, Mass., U.S.A.) and incubated at 37° C. for 2 hours to obtain monocytes, macrophages and neutrophils. Inflammatory responses are known as a cascade reaction comprising the secretion of various cytokines, e.g., IL-1, from immune cells stimulated by various stimulants; production of phospholipase A2, lysosomal enzyme, reactive oxygen species, etc. by other immune cells stimulated by said cytokines; and damage of tissues induced by the above products(Pruzanski, W. and […]., Immunol. Today, 12, 143(1991)). The ability of acanthoic acid to block the inflammatory reactions was tested by measuring their inhibitory activity to the production of reactive oxygen species, i.e., H2 O2 and O2^-. The amount of H2 O2 was determined by a microassay employing 96-well microplate as follows. 5×10^5 cells of neutrophils were added to each of the wells containing RPMI 1640 medium, and then 25 μl of horseradish peroxidase (500 μg/ml; type II, Sigma) and 75 μl of phenol red(1 mg/ml) were added to each of the wells. Thereafter, the cells were treated with 10, 20 and 50 μg/ml of acanthoic acid for an hour, stimulated with 10^-7 M phorbol myristate acetate(PMA) and then incubated at 37° C. for 60 minutes. When the incubation was completed, 3M NaOH was added to the wells in an amount of 25 μl/well to stop the reaction and O.D. was measured at 620 nm by using ELISA reader(Dynatech Lab. Inc.) to determine the change of colors with respect to the oxidation of phenol. The amount of H2 O2 was determined by employing a standard curve prepared by diluted H2 O2 (Sigma).

Regarding `C=C[C@@]1(C)CC=C2C(CCC3[C@](C)(C(=O)O)CCC[C@@]23C)C1` (single isomer, unassigned; (-)) [acanthoic acid, (-)-pimara-9(11),15-diene-19-oic acid], in experiment [1], the “inhibition of production of TNF-α” value is reported as “at least 90%”. The activity at 10 µg/mL in experiment [2] (Neutrophil, 1 h, PMA + acanthoic acid 10 μg/ml, PMA = 100, read-out: Amount of produced reactive oxygen species, H2O2 (% to the control group)) was 70%. Further, in experiment [2] (Neutrophil, 1 h, PMA + acanthoic acid 20 μg/ml, PMA = 100, read-out: Amount of produced reactive oxygen species, H2O2 (% to the control group)), the activity at 20 µg/mL was 37.4%. Moreover, the activity at 50 µg/mL in experiment [2] (Neutrophil, 1 h, PMA + acanthoic acid 50 μg/ml, PMA = 100, read-out: Amount of produced reactive oxygen species, H2O2 (% to the control group)) was 15.8%. In addition, the “Amount of produced reactive oxygen species, H2O2” value in experiment [2] (PMA + acanthoic acid 10 μg/ml) came to 72.6 nM/60 min; in experiment [2] (PMA + acanthoic acid 20 μg/ml), 38.7 nM/60 min; in experiment [2] (PMA + acanthoic acid 50 μg/ml), 16.4 nM/60 min.
